Source: the supplement of paper PMC5908809

What was measured:
[1] = system: normal NK cells expanded with K562-aAPC; assay: drug sensitivity score (DSS) (DSS units); higher = more sensitive; extreme values may be limits of the assay; conditions: 72 h; IL-2 2.5 ng/mL
Experimental: (§1)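 Drug sensitivity and resistance testing on K562-aAPC-expanded normal NK cells: 5 concentrations (10-fold steps over a 10,000-fold range), 72 h at 37 °C, viability by CellTiter-Glo normalised to DMSO and benzethonium chloride controls; DSS from the fitted curve.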

[2] = system: normal NK cells expanded with K562-aAPC; assay: percent inhibition of viability; higher = more inhibition; conditions: 72 h, IL-2 2.5 ng/mL
Experimental: as §1

[3] = system: NK-92 (IL-2 2.5 ng/mL); assay: as above; conditions: 72 h
[4] = system: normal primary NK cells, pool 1 (3 donors), resting (IL-2 0 ng/mL); assay: as above; conditions: 72 h
[5] = system: IMC-1 (IL-2 20 ng/mL); assay: as above; conditions: 72 h
[6] = system: KAI3 (IL-2 2.5 ng/mL); assay: as above; conditions: 72 h
[7] = system: NK-YS (IL-2 2.5 ng/mL); assay: as above; conditions: 72 h
[8] = system: YT (IL-2 2.5 ng/mL); assay: as above; conditions: 72 h
[9] = system: normal primary NK cells, pool 2 (3 donors) (IL-2 2.5 ng/mL); assay: as above; conditions: 72 h
[10] = system: DERL-7 (IL-2 2.5 ng/mL); assay: as above; conditions: 72 h
[11] = system: SNK-6 (IL-2 2.5 ng/mL); assay: as above; conditions: 72 h
[12] = system: normal primary NK cells, pool 1 (3 donors) (IL-2 2.5 ng/mL); assay: as above; conditions: 72 h
[13] = system: normal primary NK cells, pool 3 (3 donors) (IL-2 2.5 ng/mL); assay: as above; conditions: 72 h
[14] = system: KHYG-1 (IL-2 2.5 ng/mL); assay: as above; conditions: 72 h
[15] = system: NKL (IL-2 2.5 ng/mL); assay: as above; conditions: 72 h
[16] = system: NK-92 (IL-2 2.5 ng/mL); assay: drug sensitivity score (DSS) (DSS units); higher = more sensitive; extreme values may be limits of the assay; conditions: 72 h
[17] = system: normal primary NK cells, pool 1 (3 donors), resting (IL-2 0 ng/mL); assay: as above; conditions: 72 h
[18] = system: IMC-1 (IL-2 20 ng/mL); assay: as above; conditions: 72 h
[19] = system: KAI3 (IL-2 2.5 ng/mL); assay: as above; conditions: 72 h
[20] = system: NK-YS (IL-2 2.5 ng/mL); assay: as above; conditions: 72 h
[21] = system: YT (IL-2 2.5 ng/mL); assay: as above; conditions: 72 h
[22] = system: normal primary NK cells, pool 2 (3 donors) (IL-2 2.5 ng/mL); assay: as above; conditions: 72 h
[23] = system: DERL-7 (IL-2 2.5 ng/mL); assay: as above; conditions: 72 h
[24] = system: SNK-6 (IL-2 2.5 ng/mL); assay: as above; conditions: 72 h
[25] = system: normal primary NK cells, pool 1 (3 donors) (IL-2 2.5 ng/mL); assay: as above; conditions: 72 h
[26] = system: normal primary NK cells, pool 3 (3 donors) (IL-2 2.5 ng/mL); assay: as above; conditions: 72 h
[27] = system: KHYG-1 (IL-2 2.5 ng/mL); assay: as above; conditions: 72 h
[28] = system: NKL (IL-2 2.5 ng/mL); assay: as above; conditions: 72 h

Nc1ncnc2c1c(COc1cccc(Cl)c1)nn2C1CCOCC1 (max concentration tested 10000 nM)
Conditions | drug sensitivity score
[1] | 0.66
[16] | 1.45
[17] | 0.06
[18] | 0
[19] | 0
[20] | 0
[21] | 2.23
[22] | 0.39
[23] | 1.44
[24] | 0
[25] | 0.03
[26] | 0.39
[27] | 0
[28] | 1.92

percent inhibition of viability [%]
Conditions | 1 nM | 10 nM | 100 nM | 1000 nM | 10000 nM
[2] | -1.33 | -1.38 | -0.63 | 3.72 | 15.8
[3] | 5.04 | -5.45 | 2.8 | 11.6 | 20.2
[4] | -7.87 | -6 | -17.2 | 5.79 | 10.6
[5] | -0.63 | -0.09 | 1.3 | 2.67 | 5.66
[6] | -4.22 | -5.6 | -4.5 | -2.39 | 10.8
[7] | -2.03 | -5.09 | -3.81 | -2.25 | 1.95
[8] | 5.62 | 8.61 | 4.5 | 8.08 | 29.8
[9] | -11.2 | -9.94 | -1.24 | -2.49 | 18.9
[10] | -1.45 | -6.37 | 0.64 | 4.1 | 23.4
[11] | 11.9 | 13.8 | -0.97 | 16.6 | 15
[12] | -5.02 | -2.71 | -7 | -1.66 | 12.2
[13] | -12.8 | -14.6 | -0.61 | 5.01 | 13
[14] | 3.82 | 3.26 | 2.76 | 9.04 | 2.95
[15] | 2.65 | 1.05 | 6.33 | 7.05 | 28

Nc1cccc2c1CN(C1CCC(=O)NC1=O)C2=O (configuration not stated) [Lenalidomide] (max concentration tested 100000 nM)
Conditions | drug sensitivity score
[1] | 1.25
[16] | 2.68
[17] | 7.86
[18] | 0.13
[19] | 4.39
[20] | 0.64
[21] | 0.46
[22] | 0.06
[23] | 0
[24] | 8.33
[25] | 0.82
[26] | 0.01
[27] | 1.04
[28] | 3.34

percent inhibition of viability [%]
Conditions | 10 nM | 100 nM | 1000 nM | 10000 nM | 100000 nM
[2] | -4.41 | -0.84 | -0.51 | 11.3 | 16.5
[3] | -4.74 | -0.2 | 7.52 | 10.4 | 35.1
[4] | 1.29 | -2.98 | 10.6 | 35.5 | 59.5
[5] | -4.67 | 1.54 | 2.6 | 7.23 | 12.5
[6] | -8.97 | 1.64 | -0.65 | 10.5 | 50.6
[7] | -1.44 | -1.49 | 0.99 | 3.35 | 15.9
[8] | 0.52 | 3.88 | 7 | 1.78 | 15.6
[9] | -16.8 | -10.4 | 4.67 | -3.79 | 13.3
[10] | -8.15 | -7.59 | -6.54 | -8.34 | -1.1
[11] | 5.02 | 1.16 | 7.72 | 40.7 | 50.3
[12] | 4.48 | -7.64 | 6.17 | 0.68 | 22
[13] | -9.99 | -13.1 | 8.3 | -7.53 | 12.1
[14] | -5.45 | 0.35 | 0.75 | 5.6 | 18.1
[15] | -12.2 | -2.95 | -12.4 | 8.93 | 39.2

O=c1ncn2nc(Sc3ccc(F)cc3F)ccc2c1-c1c(Cl)cccc1Cl [VX 745] (max concentration tested 10000 nM)
Conditions | drug sensitivity score
[1] | 0.12
[16] | 3.48
[17] | 5.57
[18] | 1.58
[19] | 6.91
[20] | 4.52
[21] | 2.49
[22] | 0.67
[23] | 0.75
[24] | 1.52
[25] | 1.96
[26] | 0.07
[27] | 1.17
[28] | 7.53

percent inhibition of viability [%]
Conditions | 1 nM | 10 nM | 100 nM | 1000 nM | 10000 nM
[2] | -6.57 | -6.69 | -2.69 | 10.6 | 7.59
[3] | -11.3 | -20.3 | -9.85 | 11 | 37.8
[4] | 13.8 | 12.2 | 18.8 | 9.48 | 37.9
[5] | -8.82 | -3.76 | -6.12 | 4.33 | 24.7
[6] | 3.09 | 5.9 | 15.3 | 25.4 | 59.7
[7] | -7.93 | -3.47 | 3.09 | 15.2 | 47.7
[8] | -3.02 | -3.06 | -2.2 | 8.23 | 29.8
[9] | -5.75 | -3.08 | 5.63 | 1.25 | 19.1
[10] | 0.51 | 2.58 | 3.17 | -1.44 | 23.6
[11] | -5.31 | -15.8 | -5.14 | 3.14 | 26.2
[12] | 1.17 | 8.88 | 0.28 | 10.7 | 23.3
[13] | -1.25 | -5.79 | 8.52 | -4.71 | 13.8
[14] | -5.86 | -3.96 | -4.73 | 1.64 | 25
[15] | -15.3 | -9.23 | 3.92 | 36 | 58.3
